Measured values: patent US9511072B2, “Methods of modulating cell proliferation and cyst formation in polycystic kidney and liver diseases” (The Medical College of Wisconsin, Inc., priority 2006, dated 2016)
“Also recorded” adds a separate entry of the source.

Experiments:
[1] = system: cystic BPK cells; assay: BrdU incorporation in cystic BPK cells; assay type: cell-based, mouse; conditions: 36 hours, vehicle 118
Description: To determine the level of proliferation in the cystic BPK cells, chemically dissimilar inhibitors of cytochrome P450 4A (CYP4A) and 4F (CYP4F) inhibitors, specifically HET-0016 (10 and 20 μM) and DDMS (10 μM), were incubated for 36 hours with the BPK cells. Three hours prior to the harvesting of the cells, 5-bromo-2′-deoxyuridine (BrdU) at a concentration of 30 μM was added to determine the level of cell cycle inhibition. The cells were subsequently methanol fixed and BrdU-positive cells were identified by immunohistology with biotinylated monoclonal anti-BrdU antibody (Zymed, South San Francisco, Calif.). Data were expressed as the percentage of BrdU-labeled cells per 500 counted cells.

[2] = system: Balb/C mice; assay: Chronic HET-0016 treatment of non-cystic Balb/C mice; assay type: in vivo, mouse; conditions: 10 mg/kg/day i.p.
[3] = system: Cyp4a12-expressing Balb/C cells; assay: Cell counting of Cyp4a12-transduced non-cystic Balb/C cells; assay type: cell-based, mouse; conditions: 10 μM
Description: For the cell counting experiments, the non-cystic Balb/C (+/+) and cystic BPK renal epithelial cells were seeded in 6-well dishes and changed into media lacking γ-IFN at 37° C. (non-permissive conditions) for at least 6 additional days prior to assessing any phenotypic analyses to ensure the loss of the T antigen (Sweeney W E et al. Am J Physiol Cell Physiol, 281:C1695-705, 2001). Cells were harvested by tryptic digestion and counted by light microscopy using a hemocytometer.
The cells in this experiment were transduced using the lentiviral vectors in the presence of γ-IFN (i.e., permissive state) and allowed to expand. Once the cells were expanded, the transduced cells were grown in the absence of γ-IFN (i.e., non-permissive state) for 10 days. The cells were harvested and counted to initiate the proliferation experiment.
There was no significant difference (P>0.05) between Balb/C cells treated with vehicle or the EGFP-transduced lentiviral vectors.

[4] = system: 20-HETE; conditions: cited from earlier work
[5] = system: PCK rats; assay: Chronic HET0016 treatment of PCK rats (KW/BW, LW/BW, morphology); assay type: in vivo, rat
Description: PCK rats, an orthologous model of human ARPKD (PKHD1), received daily IP injections of vehicle or HET0016 at 10 mg/kg/daily, starting at postnatal day 7 (PN-7). Animals were treated daily from PN-7 to PN-55 (48 doses). Kidney and liver were harvested at PN-55.

[6] = system: REC11 cells; assay: BrdU proliferation of EGF-stimulated REC11 cystic renal epithelial cells; assay type: cell-based, mouse; conditions: 36 hrs, after EGF 25 ng/ml for 6 hours
Text: REC11 cystic cell line is a conditionally immortalized epithelial collecting tubule (CT) cell line derived from the cystic kidneys of the BPK mouse model of human ARPKD crossed to the ImmortoMouse. The BPK mouse as a human ARPKD model has been described in Nauta J. et al., Pediatr Nephrol 1993, 7:163-172 and Nauta J. et al., Pediatr Res 1995, 37:755-763. The procedures for immortalization, cell isolation, cell culture and the complete phenotypic characterization of this cell line have been described in detail in Sweeney W. E. et al., Am J Physiol C Physiol 2001, 281:C1695-705. All analysis and experiments were performed on REC11 cells grown for a minimum 6 days under non-permissive conditions to eliminate residual Large T.
Proliferation of REC11 cells was stimulated by exposure of the cells for 6 hours with EGF (25 ng/ml). Next, the cells were treated with vehicle, HET0016 (10 μM, a 20-HETE synthesis inhibitor), HET0016 (20 μM), DDMS (10 μM, a 20-HETE synthesis inhibitor), or WIT-002 (10 μM, a 20-HETE antagonist) for 36 hrs, pulsed with BrdU, and then stained for BrdU labeled cells to determine the degree of cell proliferation. […] Cells treated with a higher dose of HET0016 (20 μM) (column C) reduced proliferation by 75% (p<0.020). Cells treated with another chemically dissimilar inhibitor of the synthesis of 20-HETE, DDMS (10 μM) (column D), reduced proliferation by 47% (p<0.05). Cells treated with WIT-002 (10 μM) (column E) reduced proliferation by 25%.

[7] = system: EGFR phosphorylation in BPK renal tissues; assay: Western blot of EGFR phosphorylation in BPK renal tissue after chronic treatment; assay type: in vivo, mouse; conditions: BPK mice, ip 10 mg/Kg/day, PN-7 to PN-20, medulla region
Text: The BPK model, a murine model of ARPKD, arose as a spontaneous mutation in an inbred colony of Balb/c mice and has been extensively characterized (Nauta J et al. Pediatr Nephrol 1993, 7:163-72; Nauta J et al. Pediatr Res 1995, 37:755-63; and Sweeney W E et al. Kidney Int 2003, 64:1310-9). Affected animals die at postnatal day (PN) 24 (average) with a range of PN-21 to PN-29 days. Extrarenal manifestations include biliary proliferation and ductal ectasia (BDE). Balb/c controls were utilized in all experiments. All animal experiments were conducted in accordance with policies of the NIH Guide for the Care and Use of Laboratory Animals and the Institutional Animal Care and Use Committee (IACUC) of the Medical College of Wisconsin. Western blot analysis of EGFR phosphorylation was conducted for BPK renal tissues following 13 days (PN-7 to PN-20) of treatment with vehicle (ip) (lane A of FIG. 10) or HET0016 (ip, 10 mg/Kg/day) (lane B or FIG. 10). […] The reduced phosphorylation of the EGFR directly correlates with the reduced size of the HET0016-treated cystic kidney, reduced KW/BW ratio, and improved morphology of the HET0016-treated cystic kidney observed in the immunohistochemistry study described above in Example 3.

[8] = Balb/c (+/+), post-natal day 7-20, day 21
[9] = 10 mg/kg/daily IP, PN-7 to PN-55
[10] = 10 mg/kg/day IP, PN-7 to PN-55, 10 mg/kg/day

N-hydroxy-N-(4-butyl-2-methylphenyl)-formamidine [HET0016]
BrdU-positive cells per 500 total cells counted ([1]; 10 μM): 52 BrdU(+) cells
BrdU-positive cells per 500 total cells counted ([1]; 20 μM): 38 BrdU(+) cells
kidney weight, body weight and KW/BW ratio vs vehicle ([2]; Balb/C mice): unchanged
Body weight [2, 8]: 10.5 ± 1.3 g
KW/BW [2, 8]: 1.3 ± 0.2 %
Kidney Weight [2, 8]: 0.13 ± 0.02 g
increased cell proliferation of Balb/C cells over-expressing Cyp4a12 [3]: completely abolished the increased cell proliferation
number of Cyp4a12-expressing Balb/C cells ([3]; day 3, without inhibitor 285,792±21,892): 49,700±5,085
20-HETE levels in vivo [4]: reduce 20-HETE levels in vivo
BW [5, 9]: 93
KW (% BW) [5, 9]: 0.97 % BW
LW (% BW) [5, 9]: 4.3 % BW
decrease in KW/BW ratio ([5]; 10 mg/kg/daily IP, vs vehicle): 23%
decrease in LW/BW ratio ([5]; 10 mg/kg/daily IP, vs vehicle): 25%
decrease in total body weight ([5]; 10 mg/kg/daily IP, vs vehicle): 14%
kidney morphology: cysts and tubular epithelial proliferation [5, 10]: dramatic reduction in size and number of cysts and tubular epithelial proliferation; also recorded: dramatic reduction in cyst size and tubular epithelial proliferation
liver morphology: biliary cysts and biliary epithelial proliferation [5, 10]: dramatic reduction in size and number of cysts and reduced biliary epithelial proliferation; also recorded: dramatic reduction in the size and number of biliary cysts and in the proliferation of biliary epithelial cells
reduction of proliferation (BrdU labeled cells) vs vehicle ([6]; 10 μM): 66%
reduction of proliferation (BrdU labeled cells) vs vehicle ([6]; 20 μM): 75%
phosphorylation (activation) of EGFR in renal tissue [7]: reduced the phosphorylation (activation) of EGFR
